According to patent US20230128889A1, “REL/RELA/SPOT SMALL MOLECULES MODULATORS AND SCREENING METHODS” (priority 2020, published 2023):

Tests used:
[1] = system: Rel hydrolase (HD); experiment: Inhibition of Rel hydrolase activity: decrease of radioactive (p)ppGpp spot on TLC; assay type: biochemical; conditions: radioactive (p)ppGpp incubated with enzyme, with vs without compound
Protocol: (§1) As indicated above, the “Yes/No” in the 5th and 6th columns of TABLES A to F indicates whether there is, or respectively is not an inhibition of the synthetase (ST) and/or hydrolase (HD) activity. […] The action of a candidate compound is evaluated based on its effect on the production of (p)ppGpp. Therefore, in order to assess the potential influence of a candidate compound on synthesis activity, the enzyme was mixed with GDP or GTP and radioactive ATP to produce (p)ppGpp in absence or presence of the candidate compound. Subsequently, the reaction is developed by thin layer chromatography (TLC). In an alternative assay that enables determining the effect of a compound on the hydrolysis activity, radioactive (p)ppGpp is incubated with the enzyme and any decrease of the (p)ppGpp spot on TLC is evaluated when the assay is conducted in presence of the compound and compared to control conditions where no candidate compound is added during incubation.

[2] = system: Rel synthetase (ST); experiment: Inhibition of Rel synthetase activity: (p)ppGpp production from GDP or GTP and radioactive ATP, TLC; assay type: biochemical; conditions: enzyme with GDP or GTP and radioactive ATP, absence or presence of compound
Protocol: as §1

SMILES | HD (inhibition of the hydrolase activity) [1] | ST (inhibition of the synthetase activity) [2]
O=c1oc2cc(OCc3nnn[nH]3)ccc2cc1-c1ccc(F)cc1 [Compound 14] | No | Yes
CC(Nc1ccc(F)cc1[N+](=O)[O-])c1ccc2[nH]c(=O)[nH]c2c1 (stereo not drawn) [Compound 26] | Yes | No
O=C(O)c1cc(NS(=O)(=O)c2ccc3c4c(cccc24)C(=O)N3)cnc1Cl [Compound 49] | Yes | Yes
Fc1cccc(-c2nnn(Cc3nnn[nH]3)n2)c1 [Compound 58] | Yes | No
Cc1c(Cc2ccccc2)c(=O)oc2cc(OCc3nnn[nH]3)c(Cl)cc12 [Compound 19] | Yes | Yes
O=C(O)CCC(=Cc1ccc(OCC(=O)O)cc1)c1nc2ccccc2s1 [Compound 44] | Yes | Yes
O=[N+]([O-])c1nn(Cc2cccc(-c3nc4c5cn[nH]c5ncn4n3)c2)cc1Cl [Compound 71] | Yes | Yes
O=C(O)CNS(=O)(=O)c1ccc2c3c(cccc13)C(=O)N2 [Compound 48] | Yes | Yes
O=C(Nc1ccc(Cl)c([N+](=O)[O-])c1)c1ccc(-c2cccc(Cl)c2Cl)o1 [Compound 68] | Yes | Yes
O=C(Cc1ccc(Cl)cc1)Nc1ccc(-c2ccc(NC(=O)Cc3ccc(Cl)cc3)c(C(=O)O)c2)cc1C(=O)O [Compound 72] | Yes | Yes
O=C(O)CCCC(=O)Nc1cc2[nH]c(=O)[nH]c2cc1N1CCCC1 [Compound 35] | yes | no
Cc1ccc(CC(=O)Nc2ccc(N3CCC(N4CCCCC4)CC3)cc2C(=O)O)cc1 [Compound 74] | Yes | Yes
O=c1oc2cc(OCc3nnn[nH]3)ccc2cc1-c1ccccc1 [Compound 13] | No | Yes
O=C(O)CNS(=O)(=O)c1ccc2c(c1)NC(=O)CS2 [Compound 3] | Yes | No
O=[N+]([O-])c1ccc(Sc2nnc3c(n2)[nH]c2ccccc23)c([N+](=O)[O-])c1 [Compound 64] | Yes | No
O=[N+]([O-])c1ccccc1OCCn1nnc(-c2ccccc2)n1 [Compound 60] | Yes | No
O=c1oc2cc(OCc3nnn[nH]3)ccc2cc1-c1ccc(Cl)cc1 [Compound 20] | Yes | Yes
O=C(Nc1nnn[nH]1)c1ccc2c(Br)cccc2c1 [Compound 22] | Yes | Yes
CCN(CC)C(=O)CN1CCN(c2ccc(NC(=O)Cc3ccc(C)cc3)c(C(=O)O)c2)CC1 [Compound 69] | Yes | Yes
CSCCC(NS(=O)(=O)c1ccc2c3c(cccc13)C(=O)N2)C(=O)O (stereo not drawn) [Compound 47] | Yes | Yes
Cc1nc2cc(CC(=O)N[C@@H]3COCC[C@@H]3OCC(=O)O)ccc2[nH]1 [Compound 28] | Yes | No
O=C(O)CCNS(=O)(=O)c1ccc2[nH]c(=O)[nH]c2c1 [Compound 25] | Yes | No
Cc1c(Cc2ccccc2)c(=O)oc2cc(OCc3ccc(C(=O)O)cc3)ccc12 [Compound 15] | No | Yes
Cc1nnc2ccc(N3CCN(C(=O)Nc4ccccc4[N+](=O)[O-])CC3)nn12 [Compound 56] | Yes | No
O=C(CC(C(=O)O)C1CCCO1)NCCc1ccc2c(c1)OCO2 (stereo not drawn) [Compound 36] | yes | no
O=C1c2ccccc2C(=O)N1CCCc1nc(-c2cccc([N+](=O)[O-])c2)no1 [Compound 33] | Yes | No
Cc1c(CC(=O)O)c(=O)oc2cc(O)cc(O)c12 [Compound 1] | Yes | No

SMILES | HD (inhibition of the hydrolase activity) [1] | ST (inhibition of the synthetase activity) [2]
CC(NC(=O)c1cc([N+](=O)[O-])c[nH]1)c1ccc2ccccc2c1 (stereo not drawn) [Compound 23] | Yes | Yes
O=C(O)C[C@H](NC(=O)COc1ccc2nc3n(c(=O)c2c1)CCC3)C(=O)O [Compound 9] | yes | no
CCCCCCc1c(C)c2ccc(OCc3nnn[nH]3)cc2oc1=O [Compound 16] | Yes | Yes
Cc1c(C(=O)N(CCC(=O)O)CC2CCCO2)sc2ncn(C)c(=O)c12 (stereo not drawn) [Compound 53] | Yes | No
Cc1ccccc1-n1c(SCC(=O)NC(=O)c2cccc([N+](=O)[O-])c2)nnc1-c1ccncc1 [Compound 65] | Yes | No
O=C1Nc2ccccc2/C1=N/N=C/c1ccc(-c2ccccc2[N+](=O)[O-])o1 [Compound 41] | Yes | Yes
Cc1ccc(CC(=O)Nc2ccc(N3CCN(CC(=O)NC(C)(C)C)CC3)cc2C(=O)O)cc1 [Compound 70] | Yes | Yes
COc1ccc(C=C2C(=O)Nc3ccc(C(=O)O)cc32)cc1 [Compound 37] | No | Yes
O=C(O)C1CCN(S(=O)(=O)c2ccc3[nH]c(=O)oc3c2)CC1 [Compound 42] | Yes | Yes
O=C1CCc2cc(-c3csc(NC(=O)c4cccc([N+](=O)[O-])c4)n3)ccc2N1 [Compound 7] | Yes | No
O=C(O)c1cccc(Nc2ncnc3[nH]cnc23)c1 [Compound 55] | Yes | No
O=[N+]([O-])c1ccc(CSc2nnc(-c3ccccc3F)o2)cc1 [Compound 62] | Yes | No
Cn1c(=O)[nH]c(=O)c2[nH]c(SCC(=O)O)nc21 [Compound 52] | Yes | No
O=C(COc1ccc2ccccc2c1)N1N=C2/C(=C/c3cccc([N+](=O)[O-])c3)CCCC2C1c1cccc([N+](=O)[O-])c1 (stereo not drawn) [Compound 8] | Yes | No
O=C(Nc1ccc(-n2cnc3ccccc32)nc1)c1ccc([N+](=O)[O-])o1 [Compound 43] | Yes | Yes
Cc1ccc(-n2cnnn2)cc1OCc1nnn[nH]1 [Compound 57] | Yes | No
O=C(O)Cn1cc(/C=C2/C(=O)Nc3ccccc32)c2ccccc21 [Compound 40] | No | Yes
COc1ccc(-c2cc3ccc(OCc4nnn[nH]4)cc3oc2=O)cc1 [Compound 12] | No | Yes
O=C1OCc2ccc(-c3ccc(/C=N/Nc4nnn[nH]4)o3)cc21 [Compound 45] | Yes | Yes
COc1ccc2[nH]cc(CCNC(=O)c3nccnc3C(=O)O)c2c1 [Compound 29] | Yes | No
Cc1nc(N)ncc1C(=O)NCc1cccc(-c2nnn[nH]2)c1 [Compound 59] | Yes | No
Cc1cc(CCc2nnn[nH]2)c2c(C)c(Cc3ccccc3)c(=O)oc2c1 [Compound 17] | Yes | Yes
O=C(c1cc(-c2cccc(Cl)c2)[nH]n1)N1CCc2ccc([N+](=O)[O-])cc21 [Compound 30] | Yes | No
Cc1c(Cc2ccccc2)c(=O)oc2cc(OCC(=O)O)ccc12 [Compound 10] | No | Yes
O=C(O)CCS(=O)(=O)c1ccc2[nH]c(=O)oc2c1 [Compound 27] | Yes | No
Cc1c(Cc2ccccc2)c(=O)oc2cc(OCc3nnn[nH]3)ccc12 [Compound 18] | Yes | Yes
O=C1Nc2ccccc2/C1=N\c1ccc(O)c([N+](=O)[O-])c1 [Compound 38] | No | Yes
